Laboratory results as given in the CheMixHub viscosity set.
Values joined by “and” are separate entries in the source; they are usually repeats but may differ in a detail not shown here. Equal entries are not always repeated.

Experiment: xn = mol fraction of the nth substance listed

CCC(=O)O + CCCCN(CCCC)CCCC
viscosity [mPa·s], 101.33 kPa
Settings | x1 = 0.1 | x1 = 0.2 | x1 = 0.3 | x1 = 0.4 | x1 = 0.5 | x1 = 0.6 | x1 = 0.7 | x1 = 0.8 | x1 = 0.9
293.15 K | 1.867 | – | – | – | 6.422 | 12.71 | 26.1 | 23.66 | 6.57
298.15 K | 1.389 | 1.676 | 2.303 | 3.571 | 5.447 | 10.24 | 20.63 | 19.13 | 5.91
303.15 K | 1.228 | 1.495 | 1.923 | 3.107 | 4.591 | 8.37 | 16.9 | 15.79 | 4.93
308.15 K | 1.112 | 1.342 | 1.728 | 2.693 | 3.887 | 7.04 | 13.12 | 13.19 | 4.33
313.15 K | 1.015 | 1.212 | 1.523 | 2.359 | 3.372 | 5.67 | 10.81 | 10.94 | 3.79
318.15 K | 0.938 | 1.096 | 1.361 | 2.071 | 2.954 | 5.03 | 8.92 | 9.32 | 3.39
323.15 K | 0.878 | 0.994 | 1.245 | 1.839 | 2.557 | 4.35 | 7.55 | 8.06 | 3.04

Cc1ccccc1Cl + CCCCCC
viscosity [mPa·s], 100 kPa
Settings | 298.15 K | 308.15 K | 318.15 K
x1 = 0.0629 | 0.341 | 0.315 | 0.292
x1 = 0.1435 | 0.369 | 0.338 | 0.313
x1 = 0.2364 | 0.398 | 0.37 | 0.343
x1 = 0.3403 | 0.436 | 0.401 | 0.37
x1 = 0.4252 | 0.477 | 0.437 | 0.401
x1 = 0.4608 | 0.499 | 0.451 | 0.414
x1 = 0.5249 | 0.54 | 0.485 | 0.445
x1 = 0.5742 | 0.574 | 0.515 | 0.471
x1 = 0.6237 | 0.611 | 0.546 | 0.496
x1 = 0.6816 | 0.657 | 0.585 | 0.531
x1 = 0.7398 | 0.705 | 0.624 | 0.565
x1 = 0.8335 | 0.785 | 0.7 | 0.63
x1 = 0.9276 | 0.889 | 0.789 | 0.706

C[C@H](N)C(=O)O + O
Settings | viscosity
298 K, 101 kPa, x1 = 0.0004 | 0.887 mPa·s
298 K, 101 kPa, x1 = 0.0007 | 0.8925 mPa·s
298 K, 101 kPa, x1 = 0.001 | 0.8956 mPa·s
298 K, 101 kPa, x1 = 0.0018 | 0.9013 mPa·s
298.15 K, 100 kPa, x1 = 0.0004 | 0.8955 mPa·s
298.15 K, 100 kPa, x1 = 0.0007 | 0.8979 mPa·s
298.15 K, 100 kPa, x1 = 0.001 | 0.9003 mPa·s and 0.9029 mPa·s
298.15 K, 101 kPa, x1 = 0.000169 | 0.9489 mPa·s and 0.9489 mPa·s
298.15 K, 101 kPa, x1 = 0.00045 | 0.8958 mPa·s
298.15 K, 101 kPa, x1 = 0.0009 | 0.9013 mPa·s
298.15 K, 101 kPa, x1 = 0.00135 | 0.9069 mPa·s
298.15 K, 101 kPa, x1 = 0.00178 | 0.9677 mPa·s and 0.9677 mPa·s
298.15 K, 101 kPa, x1 = 0.0018 | 0.9126 mPa·s
298.15 K, 101 kPa, x1 = 0.002695 | 0.9242 mPa·s
298.15 K, 101 kPa, x1 = 0.003596 | 0.9759 mPa·s and 0.9759 mPa·s
298.15 K, 101 kPa, x1 = 0.005338 | 0.9871 mPa·s and 0.9871 mPa·s
298.15 K, 101 kPa, x1 = 0.01087 | 1.039 mPa·s and 1.039 mPa·s
298.15 K, 101 kPa, x1 = 0.0124 | 1.045 mPa·s and 1.045 mPa·s
298.15 K, 101 kPa, x1 = 0.01417 | 1.054 mPa·s and 1.054 mPa·s
303.15 K, 101 kPa, x1 = 0.00045 | 0.8023 mPa·s
303.15 K, 101 kPa, x1 = 0.0009 | 0.8076 mPa·s
303.15 K, 101 kPa, x1 = 0.00135 | 0.8128 mPa·s
303.15 K, 101 kPa, x1 = 0.0018 | 0.8182 mPa·s
303.15 K, 101 kPa, x1 = 0.001802 | 0.8176 mPa·s
303.15 K, 101 kPa, x1 = 0.002245 | 0.8235 mPa·s
303.15 K, 101 kPa, x1 = 0.002695 | 0.829 mPa·s
303.15 K, 101 kPa, x1 = 0.01069 | 0.9202 mPa·s
303.15 K, 101 kPa, x1 = 0.01245 | 0.9412 mPa·s
308.15 K, 101 kPa, x1 = 0.000169 | 0.7568 mPa·s and 0.7568 mPa·s
308.15 K, 101 kPa, x1 = 0.00045 | 0.7238 mPa·s
308.15 K, 101 kPa, x1 = 0.000844 | 0.7678 mPa·s and 0.7678 mPa·s
308.15 K, 101 kPa, x1 = 0.0009 | 0.7288 mPa·s
308.15 K, 101 kPa, x1 = 0.00135 | 0.7338 mPa·s
308.15 K, 101 kPa, x1 = 0.00178 | 0.7755 mPa·s and 0.7755 mPa·s
308.15 K, 101 kPa, x1 = 0.002245 | 0.7439 mPa·s
308.15 K, 101 kPa, x1 = 0.002695 | 0.749 mPa·s
308.15 K, 101 kPa, x1 = 0.003596 | 0.799 mPa·s and 0.799 mPa·s
308.15 K, 101 kPa, x1 = 0.005338 | 0.8044 mPa·s and 0.8044 mPa·s
308.15 K, 101 kPa, x1 = 0.007149 | 0.8133 mPa·s and 0.8133 mPa·s
308.15 K, 101 kPa, x1 = 0.008823 | 0.8201 mPa·s and 0.8201 mPa·s
308.15 K, 101 kPa, x1 = 0.01087 | 0.8366 mPa·s and 0.8366 mPa·s
308.15 K, 101 kPa, x1 = 0.0124 | 0.8431 mPa·s and 0.8431 mPa·s
308.15 K, 101 kPa, x1 = 0.01417 | 0.8612 mPa·s and 0.8612 mPa·s
313.15 K, 101 kPa, x1 = 0.00045 | 0.6571 mPa·s
313.15 K, 101 kPa, x1 = 0.0009 | 0.6618 mPa·s
313.15 K, 101 kPa, x1 = 0.00135 | 0.6666 mPa·s
313.15 K, 101 kPa, x1 = 0.0018 | 0.6714 mPa·s
313.15 K, 101 kPa, x1 = 0.002245 | 0.6761 mPa·s
313.15 K, 101 kPa, x1 = 0.002695 | 0.6809 mPa·s
313.15 K, 101 kPa, x1 = 0.005374 | 0.6994 mPa·s
313.15 K, 101 kPa, x1 = 0.008931 | 0.7316 mPa·s
313.15 K, 101 kPa, x1 = 0.01245 | 0.7659 mPa·s
318.15 K, 101 kPa, x1 = 0.000169 | 0.6345 mPa·s
318.15 K, 101 kPa, x1 = 0.00045 | 0.6014 mPa·s
318.15 K, 101 kPa, x1 = 0.000844 | 0.6454 mPa·s and 0.6454 mPa·s
318.15 K, 101 kPa, x1 = 0.0009 | 0.6059 mPa·s
318.15 K, 101 kPa, x1 = 0.00135 | 0.6104 mPa·s
318.15 K, 101 kPa, x1 = 0.00178 | 0.6589 mPa·s and 0.6589 mPa·s
318.15 K, 101 kPa, x1 = 0.0018 | 0.6149 mPa·s
318.15 K, 101 kPa, x1 = 0.002245 | 0.6195 mPa·s
318.15 K, 101 kPa, x1 = 0.002695 | 0.624 mPa·s
318.15 K, 101 kPa, x1 = 0.003596 | 0.6733 mPa·s and 0.6733 mPa·s
318.15 K, 101 kPa, x1 = 0.005338 | 0.6747 mPa·s and 0.6747 mPa·s
318.15 K, 101 kPa, x1 = 0.007149 | 0.6774 mPa·s and 0.6774 mPa·s
318.15 K, 101 kPa, x1 = 0.008823 | 0.699 mPa·s and 0.699 mPa·s
318.15 K, 101 kPa, x1 = 0.01087 | 0.7009 mPa·s and 0.7009 mPa·s
318.15 K, 101 kPa, x1 = 0.0124 | 0.7145 mPa·s and 0.7145 mPa·s
318.15 K, 101 kPa, x1 = 0.01417 | 0.7345 mPa·s and 0.7345 mPa·s
323.15 K, 101 kPa, x1 = 0.005374 | 0.5833 mPa·s
323.15 K, 101 kPa, x1 = 0.008931 | 0.6095 mPa·s
323.15 K, 101 kPa, x1 = 0.01069 | 0.6229 mPa·s
323.15 K, 101 kPa, x1 = 0.01245 | 0.6364 mPa·s

C1C[C@@H]2[C@H]3CC[C@H](C3)[C@@H]2C1 + CC(C)CC(C)(C)C
viscosity [mPa·s], 100 kPa
Settings | x1 = 0.1 | x1 = 0.2002 | x1 = 0.3008 | x1 = 0.4003 | x1 = 0.5008 | x1 = 0.5997 | x1 = 0.6982 | x1 = 0.8002 | x1 = 0.9012
293.15 K | 0.593 | 0.682 | 0.795 | 0.929 | 1.102 | 1.316 | 1.582 | 1.959 | 2.405
298.15 K | 0.563 | 0.643 | 0.745 | 0.868 | 1.026 | 1.219 | 1.457 | 1.799 | 2.194
303.15 K | 0.532 | 0.608 | 0.701 | 0.813 | 0.958 | 1.132 | 1.347 | 1.657 | 2.008
308.15 K | 0.506 | 0.574 | 0.661 | 0.764 | 0.896 | 1.056 | 1.251 | 1.534 | 1.844
313.15 K | 0.483 | 0.546 | 0.626 | 0.719 | 0.842 | 0.987 | 1.164 | 1.42 | 1.701
